Measured values: patent publication US20160193148A1, “LIPOSOMAL FORMULATIONS FOR THE TREATMENT OF BACTERIAL INFECTIONS” (UNIVERSITY OF GEORGIA RESEARCH FOUNDATION, INC., priority 2013, published 2016)
Marks after values point to notes of the source that are not given here.

Experiment: PELF gentamicin concentrations after single IV or nebulized dose in foals
Method: Eight healthy 5-7-week-old Quarter Horse foals were randomly assigned to one of 4 groups using a balanced Latin-square design. Foals were considered healthy on the basis of physical examinations, complete blood cell counts and plasma biochemical profiles. […] The liposome gentamicin formulation was nebulized using Nortev FLEXINEB. For each treatment, gentamicin was administered over a period of 15 minutes. There was a washout period of 7-14 days between each treatment.
For the BAL collection, foals were sedated with xylazine and butorphanol. Concentrations of gentamicin were measured in plasma and in bronchoalveolar cells using HPLC-MS.
Eight foals received a single IV or nebulized dose (6.6 mg/kg bwt) of FG^h or LG in a balanced Latin square design. Beginning at 5-7 weeks of age, every foal received each of the 4 possible drug-route combinations with a 14-day washout period between each administration. Intravenous FG and LG were diluted in 250 ml of sterile 0.9% saline and administered via a jugular catheter as a constant rate infusion over 15 min. Nebulized FG and LG were administered by inhalation over 15 minutes via a commercial equine nebulizer. To ensure equivalent rate of delivery, FG was diluted to the same volume as LG with sterile 0.9% saline. Particle size of nebulized LG was verified using laser diffraction. Blood samples for plasma separation were obtained from a catheter placed in the contralateral jugular vein prior to each drug administration, and at 5, 10, 20, 30, 45 minutes and 1, 1.5, 2, 3, 4, 6, 8, 12, 16, 24 and 48 hours after the end of the 15 minute IV infusion or nebulization period. Bronchoalveolar lavage (BAL) fluid was collected at 2, 4, 8, 24, and 48 hours. Foals were sedated with xylazine hydrochloride (0.5 mg/kg bwt IV) and butorphanol tartrate (0.07 mg/kg bwt IV) prior to collection of BAL fluid. Prior to analysis for gentamicin concentration, blood samples were centrifuged at 400×g for 10 minutes and the resultant plasma frozen at −80° C. until assayed.
A 10 mm diameter, 2.4 m BAL catheter^k was passed via nasal approach until wedged into a bronchus. The lavage solution consisted of 4 aliquots of 60 ml 0.9% saline solution infused and instantly aspirated. Immediately upon collection, the total volume of BAL fluid recovered was measured and a 3 ml aliquot saved in an EDTA tube from which total nucleated cell count was determined by use of a cell counter.^1 BAL fluid was immediately centrifuged at 400×g for 10 min. The BAL cells in the resultant pellet were washed, re-suspended in 500 μl of acetonitrile: 0.2% formic acid (1:1, v/v), vortexed, and frozen at −80° C. until assayed. Supernatant BAL fluid was also frozen at −80° C. until assayed. Before assaying, the cell pellet samples were thawed, vortexed vigorously and sonicated for 10 minutes to ensure complete cell lysis. The resulting suspension was centrifuged at 500×g for 10 minutes and the supernatant fluid was used to determine the intracellular concentrations of gentamicin.
Briefly, gentamicin was extracted from plasma (250 μl) and urine (500 μl) using protein precipitation with an equal volume of ice-cold 90:10 acetonitrile: 0.2% formic acid (v/v). Extracted samples were centrifuged (2° C. at 10,000×g for 10 min) twice. Two-hundred microliters of the supernatants were transferred to polypropylene inserts for injection. The supernatant derived from the lyzed BAL cell pellet was transferred to polypropylene inserts for direct injection without further processing. […] An aliquot of the resultant supernatant was then mixed with an equal volume of ice-cold acetonitrile, centrifuged (2° C. at 10,000×g for 10 minutes) and 200 μl was transferred to polypropylene inserts for injection. Calibration standards were prepared in drug-free foal plasma, BAL fluid or urine and then extracted as described above so that standard curves specific to each biologic matrix could be constructed.

gentamicin sulfate [Free Gentamicin]
AUC0-t (IV): 44.66 ± 20.96^a μg · h/ml | C24 h (IV): 0.84 ± 0.64 µg/mL | Tmax (median and range) (IV): 6 (4-8) h | AUC0-24 (IV, Table 2): 44.8 ± 21.0 µg·h/mL | C48 h (IV, Table 2): 0.84 ± 0.64 µg/mL | Cmax (IV, Table 2): 4.6 ± 1.9 µg/mL | Cmax (IV, Table 5): 4.64 ± 1.99^a μg/ml | AUC0-24 (N (nebulized), Table 2): 41.0 ± 15.8 µg·h/mL | C48 h (N (nebulized), Table 2): 0.35 ± 0.34 µg/mL | Cmax (N (nebulized), Table 2): 13.0 ± 6.7 µg/mL | AUC0-t (Neb): 40.97 ± 15.81^a μg · h/ml | C24 h (Neb): 0.35 ± 0.34 µg/mL | Tmax (median and range) (Neb): 2 (2-2) h | Cmax (Neb, Table 5): 13.02 ± 6.70^c μg/ml
